# Experimental data: patent publication US20240033358A1, “COMBINATION THERAPIES WITH CHIMERIC ANTIGEN RECEPTOR (CAR)-EXPRESSING CELLS” (Novartis AG, priority 2020, published 2024)
# Columns and labels:
# [1] = test system: SuDHL6 cells implanted subcutaneously; assay: In vivo double-hit lymphoma model: tumor volume after CART19 cells and/or BCL2 inhibitor; set-up: species or system NOD scid gamma (NSG) mice; conditions: treatment from day 15 post-implant; venetoclax 100 mg/kg daily; 1e6 CART19 cells; versus PBS vehicle, UTD or CART19 alone
# Experimental: NOD scid gamma (NSG) mice were implanted subcutaneously with a dose of 5e6 SuDHL6 cells/mouse. At day 15 post-implant, mice were randomized into treatment groups, which included: PBS vehicle negative control (FIG. 10A); PBS vehicle and 100 mg/kg of the BCL2 inhibitor, venetoclax (FIG. 10A); 1.45e6 untransduced T cells containing no CAR (UTD) (FIG. 10B); 1.45e6 untransduced T cells containing no CAR (UTD) and 100 mg/kg of the BCL2 inhibitor, venetoclax (FIG. 10B); 1e6 CART19 cells (which were at 68% positivity, total cells injected were 1.45e6) (FIG. 10C); and 1e6 CART19 cells and 100 mg/kg of the BCL2 inhibitor, venetoclax (FIG. 10C). The BCL2 inhibitor was administered daily until sacrifice. Tumor growth was monitored in these mice every three days. Tumor volume was quantified by caliper measurement at each timepoint sampled (FIGS. 10A-C).
# [2] = test system: adult patients with r/r DLBCL; assay: JULIET phase 2 trial of tisagenlecleucel: efficacy outcomes (BOR, M3 response, DOR, PFS, OS), safety and B-cell recovery, overall and by subgroup (MYC, DH/TH, TME, pre-infusion LDH); type: in vivo, human; conditions: for probability of PFS: MYC(−) patients with normal pre-infusion LDH (n=16); for Survival probability: all infused patients
# From the text: Methods: JULIET (NCT02445248) was a global, phase 2 trial of autologous anti-CD19 CAR-T cell therapy in adult patients with r/r DLBCL (relapsed or refractory to ≥2 prior lines of therapy). Median follow-up was 40.3 months. The relationship between MYC overexpression, tumor microenvironment (TME) characteristics (including CD3+ T-cell infiltration, myeloid-derived suppressor cells [MDSCs], and LAG3 expression by fluorescent immunohistochemistry [IHC]), activated B-cell/germinal center B-cell [ABC/GCB] subtype, double/triple-hit (DH/TH) status, and gene mutations including TP53 with efficacy outcomes (best overall response [BOR], response at Month 3 [M3], progression-free and overall survival [PFS/OS]) were assessed. Results: 115 patients received autologous anti-CD19 CAR-T cell infusion. Among patients who were in CR at 6 months, 86% were estimated to maintain the response at 36 months. […] Median OS among all 115 infused patients was 11.1 months (95% CI, 6.6-23.9). […] Median OS of patients with CR (n=37) or PR (n=7) at M3 was not reached; 80% of patients with complete response (CR) had OS benefit≥20 months. […] Of the 23 patients with ongoing CR and B-cell count available, 11 had CD19+ B cells recovered back to normal (80 cells/μL) after 1 year, with similar patterns observed for CD20+ and CD22+ B cells (FIG. 21). The 24 month and 42 month PFS was 33% and 31% respectively (FIG. 16).
# Of the 111 patients whose baseline tumor biopsies were tested for MYC expression by immunohistochemistry (IHC), 73 patients were positive for MYC expression (MYC(+) defined as >40% of cells expressing MYC, as measured by IHC) and 38 patients were negative for MYC expression (MYC(−) defined as <40% of cells expressing MYC, as measured by IHC). BOR rates for MYC(+) and MYC(−) patients were 44% (95% CI, 32-56) and 63% (95% CI, 46-78), respectively; M3 response rates were 30% (95% CI, 20-42) and 50% (95% CI, 33-67), respectively (Table 6, and FIG. 14). By month 6, 18/38 (47%) MYC(−) patients were CR/PR compared to 18/73 (25%) of MYC(+) patients. DOR was in a plateau phase at 79% starting in MYC(−) patients (n=24) at 6 months. […] Thus, MYC(+) patients tended to have shorter PFS and OS compared with MYC(−) patients and a high-baseline of MYC expression in patients prior to treatment was associated with worse PFS and OS (FIGS. 4A-4C).
# Of the 73 MYC(+) patients, 70 of them were also tested for rearrangements in MYC, BCL2, and BCL6 by FISH in order to identify double hit (DH) (MYC/BCL2 or MYC/BCL6) or triple hit (TH) (MYC/BCL2/BCL6) lymphomas. Of the 70 MYC(+) patients, 20 had DH/TH lymphoma and a BOR rate of 40% (95% CI, 19-64). BOR rate for patients that were MYC(+) but non-DH/TH lymphoma was 48% (95% CI, 34-63).
# In the TME analysis of baseline biopsy, a low frequency of tumor infiltrating CD3+ T cells (cutoff of ≤3%; n=16) was associated with shorter median DOR, PFS (2.2 months [95% CI, 0.92-2.8] and 4.2 months [95% Cl, 2.6-21], respectively) and OS (7 months [95% CI, 1.8-12] and 21 months [95% CI, 6.7-NE], respectively) compared with patients with ≥3% CD3+ T cells (n=64) (FIGS. 13A-13C). At month 6, only 2/16 (13%) of patients with <3% tumor-infiltrating CD3+ T cells in baseline tumors were responders compared to 23/36 (64%) responders with >3% tumor infiltrating CD3+ T cells. Patients with low or no (≤3%) tumor-infiltrating CD3+ T cells (n=16) in baseline tumor biopsies were enriched with non-responders (FIG. 22).
# Patients with the highest frequency of LAG3+CD3+ cells out of the tumor infiltrating CD3+ T cell population (cutoff of >20%; n=12) at baseline were mostly non-responders at Month 3 (FIG. 23) and all 12 patients with >20% LAG3+CD3+ cells (out of the tumor infiltrating CD3+ T cells) were non-responders at Month 6.
# The probability of PFS in MYC(−) patients with normal LDH (n=16) was 81% at 6 months and stabilized at 75% starting at 12 months.
# [3] = LAG3+CD3+ out of CD3+ T cells ≥20% at baseline (n=12)
# [4] = MYC(+) DH/TH patients (n = 20), r/r DLBCL, JULIET
# [5] = MYC(+) Non-DH/TH patients (n = 50), r/r DLBCL, JULIET
# [6] = MYC(−) patients (n = 38), r/r DLBCL, JULIET
# [7] = baseline tumor infiltrating CD3+ T cells ≤3% (n=16)
# [8] = of patients with a CR at 6 months
# [9] = patients with <20% LAG3+CD3+ T cells (n=68)
# [10] = patients with ≥3% CD3+ T cells (n=64)
substance,measurement,setting,value
"4-(4-{[2-(4-chlorophenyl)-4,4-dimethylcyclohex-1-en-1-yl]methyl}piperazin-1-yl)-N-(3-nitro-4-{[(oxan-4-yl)methyl]amino}benzenesulfonyl)-2-{1H-pyrrolo[2,3162yridinedin-5-yloxy}benzamide [venetoclax]",tumor growth (tumor volume by caliper),[1],slowed tumor growth
Tisagenlecleucel,PFS,[2]; 24 month,33%
same,PFS,[2]; 42 month,31%
same,median duration of response (DOR),"[2]; 61 patients with a response, 95% CI, 10-NE",not reached
same,median OS,[2]; [3],4.3 months
same,median PFS,[2]; [3],2.1 months
same,"Best Overall Response (BOR), % (95% CI)",[2]; [4],40 (19-64) %
same,"Response at Month 3 (M3), % (95% CI)",[2]; [4],20 (6-44) %
same,"Best Overall Response (BOR), % (95% CI)",[2]; [5],48 (34-63) %
same,"Response at Month 3 (M3), % (95% CI)",[2]; [5],36 (23-51) %
same,median DOR,[2]; MYC(+) patients,19 months
same,median OS,[2]; MYC(+) patients,7.8 months
same,median PFS,[2]; MYC(+) patients,2.5 months
same,"Best Overall Response (BOR), % (95% CI)",[2]; MYC(+) patients (n = 73),44 (32-56) %
same,"Response at Month 3 (M3), % (95% CI)",[2]; MYC(+) patients (n = 73),30 (20-42) %
same,BOR rate,[2]; MYC(+) patients with DH/TH lymphoma (n=20),40%
same,patients CR/PR by month 6,"[2]; MYC(+) patients, 18/73",25%
same,median DOR,[2]; MYC(−) patients,not reached
same,median OS,[2]; MYC(−) patients,21 months
same,median PFS,[2]; MYC(−) patients,6.2 months
same,"Best Overall Response (BOR), % (95% CI)",[2]; MYC(−) patients (n = 38),63 (46-78) %
same,"Response at Month 3 (M3), % (95% CI)",[2]; MYC(−) patients (n = 38),50 (33-67) %
same,"Best Overall Response (BOR), % (95% CI)",[2]; [6],63 (46-78) %
same,"Response at Month 3 (M3), % (95% CI)",[2]; [6],50 (33-67) %
same,DOR plateau phase,"[2]; MYC(−) patients (n=24), starting at 6 months",79%
same,probability of PFS,[2]; at 6 months,81%
same,probability of PFS,[2]; stabilized starting at 12 months,75%
same,patients CR/PR by month 6,"[2]; MYC(−) patients, 18/38",47%
same,median OS,[2]; all 115 infused patients,11.1 months
same,patients estimated to maintain the response at 36 months,[2]; among patients who were in CR at 6 months,86%
same,relapse-free probability,"[2]; among the 61 patients with a response, at 24 and 30 months",60.4%
same,"responses across B-cell lymphoma subsets (MYC positive, MYC negative, DH/TH)",[2]; at 1 month post-treatment,comparable
same,Survival probability,[2]; at 12 months,48.2%
same,Survival probability,[2]; at 24 months,40.4%
same,Survival probability,[2]; at 36 months,36.2%
same,median OS,[2]; [7],7 months
same,median PFS,[2]; [7],2.2 months
same,safety signals,[2]; median follow-up 40.3 months,No new safety signals
same,patients with a relapse after 12 months,[2]; [8],1
same,patients with relapses after 6 months,[2]; [8],3
same,BOR rate,[2]; patients MYC(+) but non-DH/TH lymphoma,48%
same,patients maintaining longer than a 6 month response,[2]; patients identified as MYC positive by IHC,less than 75%
same,responders at month 6,"[2]; patients with <3% tumor-infiltrating CD3+ T cells in baseline tumors, 2/16",13%
same,median OS,[2]; [9],21 months
same,median PFS,[2]; [9],4.2 months
same,responders at month 6,"[2]; patients with >3% tumor infiltrating CD3+ T cells, 23/36",64%
same,patients with complete response (CR) with OS benefit ≥20 months,[2]; patients with CR,80%
same,median OS,[2]; patients with CR (n=37) or PR (n=7) at M3,not reached
same,PFS and OS compared with other patients,[2]; patients with DH/TH lymphoma,shorter progression free survival (PFS) and overall survival (OS)
same,response rate at M3,[2]; patients with DH/TH lymphoma,20%
same,relapse frequency,"[2]; patients with DH/TH lymphomas and high MYC expression, at 3 months and 6 months",appeared to relapse more frequently
same,response rate at M3,[2]; patients with MYC(+) but non-DH/TH lymphoma,36%
same,median OS,[2]; [10],21 months
same,median PFS,[2]; [10],4.2 months
same,patients who were non-responders at Month 6,[2]; the 12 patients with >20% LAG3+CD3+ cells out of tumor infiltrating CD3+ T cells,12
